From PubChem BioAssay AID1508612

Assay: passive permeability, PAMPA, ADME assay (AID 1508612)
Details: pH 7.4, 30.0 min, 50.0 µM

SMILES | Papp
Cc1ccc(-n2nc3c(=O)n(CCCC(=O)NC(C)c4ccccc4)nc(C)c3c2C)cc1 (configuration not stated) | 695 ×10⁻⁶ cm/s
Cn1c(=O)c2c(nc(Cl)n2Cc2ccc(Cl)cc2)n(C)c1=O | > 1000 ×10⁻⁶ cm/s
CCN(CCN(C)C)C(=O)C1CCN(S(=O)(=O)c2c(C)noc2/C=C/c2ccccc2F)CC1 | > 1000 ×10⁻⁶ cm/s
Fc1ccc(Cc2nc3nccc(-c4cccs4)n3n2)cc1 | > 1000 ×10⁻⁶ cm/s
Nc1ccc(-c2cccc3c(=O)cc(N4CCOCC4)oc23)cc1 | 65.7 ×10⁻⁶ cm/s
Cc1cc(CNC(=O)c2ccc3c(c2)n(CC2CC2)c(=O)n3C2CCCCC2)on1 | 964 ×10⁻⁶ cm/s
CC1=Nc2cc(C(=O)NCCc3ccccc3)ccc2Sc2c(C)ccc(C)c21 | 359 ×10⁻⁶ cm/s
COc1cccc(CNCc2cccn2-c2nnc(N3CCN(c4ccccc4)CC3)s2)c1 | > 1000 ×10⁻⁶ cm/s
CCOc1ccc(CCNC(=O)c2cc3ccccc3o2)cc1OCC | > 1000 ×10⁻⁶ cm/s
O=C(c1ccc2ncccc2c1)N1CCc2c(nc3cc[nH]n3c2=O)C1 | 101 ×10⁻⁶ cm/s
Cc1ccc(S(=O)(=O)Nc2ccccc2C(=O)Nc2ccc(-c3ccccc3)nn2)cc1 | > 1000 ×10⁻⁶ cm/s
COC(=N)c1nc2ccc3ncnc(Nc4ccc(F)cc4Br)c3c2s1 | 28 ×10⁻⁶ cm/s
CCc1ccc(NC(=O)CSC2=Nc3ccccc3C3=NC(CC(=O)NCc4ccc5c(c4)OCO5)C(=O)N23)cc1 (configuration not stated) | < 1 ×10⁻⁶ cm/s
CC(=O)c1ccc(N2CCN(S(=O)(=O)c3ccc4c(c3)n(C)c(=O)n4C)CC2)cc1 | 306 ×10⁻⁶ cm/s
Cc1cnc(-c2ccccc2C2COC2)nc1NCC1CCN(c2cccnc2)CC1 | 3.48 ×10⁻⁶ cm/s
Cc1c(C(=O)OCCOc2ccccc2)[nH]c2c1C(=O)CC(c1ccccc1)C2 (configuration not stated) | 276 ×10⁻⁶ cm/s
NC(=O)C1CCN(c2ncc(-c3ccc(Br)cc3)s2)CC1 | 688 ×10⁻⁶ cm/s
Fc1ccc(Nc2nc(-c3ccccc3)cc(-c3ccncc3)n2)cc1F | < 1 ×10⁻⁶ cm/s
OCc1cccc(-c2cc(-c3cccnc3)c3cncn3c2)c1 | 76 ×10⁻⁶ cm/s
Cc1cc(N[S+](=O)([O-])c2ccc(NC(=O)Cc3ccc(F)c(F)c3)cc2)no1 | 6.43 ×10⁻⁶ cm/s
COc1ccccc1-c1cc2c(ccn2C)c(C(=O)NCC2CCN(C)C(=O)C2)n1 (configuration not stated) | 317 ×10⁻⁶ cm/s

SMILES | Papp
COC(=O)c1ccc(NS(=O)(=O)c2c(C)nc3sccn3c2=O)cc1 | 333 ×10⁻⁶ cm/s
Cc1ccnc(NC(=S)N2CCN(c3ccc(N)cc3)CC2)c1 | 717 ×10⁻⁶ cm/s
Cc1nn(CCc2nc(-c3ccccc3)cs2)c2[nH]c(=O)cc(C(F)(F)F)c12 | 426 ×10⁻⁶ cm/s
COc1ccc(Cn2c(C(=O)O)c(CNCc3cccc(OC)c3)c3ccc(C)cc32)cc1 | 361 ×10⁻⁶ cm/s
CC(=O)c1ccc(N2CCN(S(=O)(=O)c3cc4c(cc3Cl)NC(=O)C4)CC2)cc1 | 558 ×10⁻⁶ cm/s
Cc1ccc(-c2csc(N3CCC(C(N)=O)CC3)n2)cc1 | 711 ×10⁻⁶ cm/s
CCOC(=O)c1ccc(NC(=O)c2sc3nc4c(cc3c2N)N2CCC4CC2)cc1 | 928 ×10⁻⁶ cm/s
O=C(Oc1ccc[nH]c1=O)c1cc([N+](=O)[O-])cc([N+](=O)[O-])c1 | 16.2 ×10⁻⁶ cm/s
CNc1nc(-c2cccc3ccccc23)ccc1C#N | 985 ×10⁻⁶ cm/s
COc1ccccc1S(=O)(=O)Nc1cnccc1C(=O)Nc1nc(-c2ccccc2)cs1 | 387 ×10⁻⁶ cm/s
COc1ccccc1C(=O)Nc1ccccc1C(=O)Nc1cccc(S(=O)(=O)C(F)(F)F)c1 | 7.6 ×10⁻⁶ cm/s
COc1cc(Nc2nc(-c3ccncc3)nc3ccccc23)ccc1F | 445 ×10⁻⁶ cm/s
COc1cncc(Nc2ncc(-c3cccc(N(C)C)c3)c3c2OCC3)c1 | < 1 ×10⁻⁶ cm/s
C[S+](=O)([O-])c1ccc(-c2nc(C(=O)N3CCOCC3)n3ccccc23)cc1 | 180 ×10⁻⁶ cm/s
O=c1c2ccccc2nc(/C=C/c2cccnc2)n1Cc1ccccc1 | > 1000 ×10⁻⁶ cm/s
Cc1ccc(NC2=C(c3ccc(C(F)(F)F)cc3)C(=O)c3ccccc32)cc1F | < 1 ×10⁻⁶ cm/s
CCNC(=O)N1CCCN(c2ccc(C(=O)NCCc3ccc(Cl)cc3Cl)cc2NC(=O)c2cccc(Cl)c2)CC1 | 202 ×10⁻⁶ cm/s
O=C(Nc1ncc(Cc2ccc(C(F)(F)F)cc2)s1)c1ccc(-c2cccnc2)o1 | 984 ×10⁻⁶ cm/s
Cn1cnc(-c2nccc3c(=O)[nH]c(OCCCC(F)(F)F)nc23)c1 | 109 ×10⁻⁶ cm/s
CCc1cccc(NC(=O)c2c(C)oc3nc(C)nc(N4CCCC4)c23)c1 | > 1000 ×10⁻⁶ cm/s
CCOc1ccc(CCNC(=O)c2cc3ccccc3n2CCN2CCOCC2)cc1OCC | > 1000 ×10⁻⁶ cm/s
